Experimental data published in article PMC5853558, “De novo identification of lipid II binding lipopeptides with antibacterial activity against vancomycin-resistant bacteria” (Chemical Science, 2017).
Values after ≈ are worked out from the molar mass of the structure shown. *1 amine or outer side, *2 acyl side, *3 side chain or, on linkers, in order; H or OH if unused. Where a SMILES comes first, the peptide text is derived from it. Bridges are numbered along the chain shown (N, C = ends). [ ]: non-standard residue; d: D form. The star is where a group is joined. TBMB = c1c(C[*:1])cc(C[*:3])cc1C[*:2]; NHtetradecyl = CCCCCCCCCCCCCCN*; NHDecyl = CCCCCCCCCCN*

Experiments:
Sheep blood = assay: Hemolysis assay; type: cell-based; conditions: for Hemolysis 32 µg/ml (after 1 h): Supplemental table S7, sheep blood cells in PBS, 1 h at 37°C, absorption at 414 nm
Description: Sheep blood in Alsever’s solution (2 mL) was diluted with PBS (13 mL) and centrifuged (2,000 RPM, 5 min). The supernatant was discarded and the cells were washed with another 13 mL of PBS and centrifuged. Washing was continued until the supernatant was clear. After the final wash the supernatant was discarded and the packed cells were kept on ice. Serial dilutions of each peptide were made in 50 µl PBS with the highest tested concentration 64 µg/mL in PBS, 2%
DMSO. The packed cells (150 µL) were suspended in PBS (10 mL) and 50 µL of this suspension was added to each well. A well plate column containing 0.1% triton x-100 in DI water was used as the 100% lysis control and a second column with PBS (with 2% DMSO) served as the 0% lysis control. After incubation at 37°C for 1h the plates were centrifuged (2,000 RPM, 5 min) and 25 µL of the supernatant was added to 100 µL DI water in a flat-bottom 96-wells plate (polystyrene). […]

M. luteus (NCTC2665) = assay: microbe, parasite or virus in culture; type: cell-based, Micrococcus luteus; conditions: for MIC M. luteus: Supplemental table S7, P8 with varying lipids, broth microdilution
Summary of the method: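 TSB microdilution MIC. Top final peptide 512 µg/ml, lipopeptides 64 µg/ml, DMSO 2%; cells grown to OD600 0.5, suspension at 1 x 10^6 CFU/ml added 1:1; shaken 250 rpm at strain's optimal temperature; DMSO-only control per strain.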

E. faecium (VRE155) = assay: microbe, parasite or virus in culture; type: cell-based, Enterococcus faecium; conditions: for MIC VRE E155: Supplemental table S7, P8 with varying lipids, broth microdilution
Description: (§1) Section 4 Biological and biochemical experiments
(§2) 4.1 Minimum inhibitory concentration assay
(§3) MIC values were determined by using the broth microdilution method. Peptides were dissolved first in DMSO and diluted with broth so that the final peptide concentration was 1024 µg/ml and the DMSO concentration was 4%. Peptide serial dilutions were made in TSB in a polypropylene 96-wells plate using 50 µl volumes. An overnight culture of the organism of interest was diluted to and OD600 of 0.01 and grown until they reach 0.5. The culture was then diluted to 1 x 10^6 CFU/ml and 50 µl of this suspension was added to each well. The highest concentrations were then 512 µg/ml peptide and 2% DMSO. The plates were incubated at the preferred growth temperature of the organism that was used and 250 rpm. […] When […]
(§4) determining the MICs of the lipidated peptides, the lipopeptides were first dissolved in DMSO and diluted with TSB so that the peptide concentration was 128 µg/ml and the DMSO concentration was 4%. After inoculation the highest peptide concentration evaluated was 64 µg/ml and the DMSO concentration was 2%. A DMSO control was tested for each strain to ensure the DMSO did not affect the growth of the particular strain. […]

[1] = footnote to Supplemental table S7; observation in words during MIC experiments
lipid II = assay: Lipid II antagonization assay; type: cell-based, M. luteus; set-up: key to Result with antagonist Lipid II: +: antagonization of antibiotic activity; -: no antagonization of antibiotic activity
Description: (§5) To assess the role of lipid II in the mode of action of the lipopeptides a lipid II antagonization assay was employed.[18],[33] This assay was performed by premixing P8-D-C10 or the optimized P8-D-(S6R, R15A)-C10 with an excess of lipid II prior to addition of a live culture of M. luteus. […] To probe the stereochemical aspects of lipid II recognition by the optimized P8-D-(S6R, R15A)-C10 lipopeptide we also prepared and tested the corresponding enantiomeric L-peptide species P8-L-(S6R, R15A)-C10. […] Given that lipid II is a chiral biomolecule we had expected the enantiomeric lipopeptides to have different activities based on the assumption that they would interact differently with lipid II. To further investigate this phenomenon we employed the same lipid II antagonization assay described above. […] To explain this observation we hypothesize that the two enantiomeric peptides interact primarily with the pyrophosphate moiety of lipid II and are therefore less influenced by the chiral elements present elsewhere in the lipid II molecule. The pyrophosphate group is known to be a binding site for many natural occurring lipid II binding peptides.[15],[16] […] To test the hypothesis that both the P8-D-(S6R, R15A)-C10 and P8-L-(S6R, R15A)-C10 lipopeptides interact with the pyrophosphate moiety we performed an additional antagonizaiton experiment using C55-PP.
as §1, §2, §3, §4
(§6) 4.4 Antagonization assays
(§7) Stock solutions of each peptide antibiotic were prepared so that their final concentration in the assay would be 4x MIC. Peptides were transferred to a 96 wells plate and lipid II or C15-P (farnesyl-phosphate) was added at 4 molar equivalents in a final volume of 50 µl. Each well received 50 µl of bacterial suspension (M. luteus) at 1 x 10^6 CFU/ml and the plates were incubated for 16 h at 250 rpm and 30°C. Growth was observed visually (see supplemental table S10 for results).

[2] = test system: C15-P (farnesyl-phosphate); assay: Antagonization assay with C15-P (negative control); type: cell-based; set-up: key: +: antagonization of antibiotic activity; -: no antagonization of antibiotic activity; conditions: Supplemental table S10, peptide at 4x MIC, 4 molar equivalents, M. luteus, 16 h at 30°C, growth observed visually
Description: as §1, §2, §3, §4, §6, §7
Supplemental table S10. Lipid II antagonization assay results
Result with indicated antagonista
Antibiotic compound Lipid II C55-PP C15-Pb […]
a + = antagonization of antibiotic activity; - = no antagonization of antibiotic activity; b C -P was used as a negative […]
control (C15-P is a watersoluble analogue of the lipid II precursor undecaprenol phosphate).
4.6 Scanning Electron Microscopy
E. faecium E155 was inoculated at an OD600nm of 0.05 into 300 µL of cation adjusted TSB containing P8-D-(S6R, R15A)-C10 or nisin at (both a 2x MIC) along with 1% glucose and 1%
DMSO. An untreated culture was used as control. Following overnight incubation (ca. 16 hr) bacterial cells were fixed for 15 minutes with 1% (v/v) glutaraldehyde in phosphate buffered saline (PBS) at room temperature on poly-L-lysine covered glass slides (12 mm diameter). […]

C55-PP = assay: Antagonization assay with C55-PP; type: cell-based, M. luteus; set-up: key to Result with antagonist C55-PP: +: antagonization of antibiotic activity; -: no antagonization of antibiotic activity; conditions: Supplemental table S10; peptide at 4x MIC, M. luteus, 16 h at 30°C, growth observed visually
Description: as §5, §1, §2, §3, §4, §6, §7

S. epidermidis (1587) = assay: microbe, parasite or virus in culture; type: cell-based; conditions: Table 2; broth microdilution in TSB, 16 h, read visually; highest tested 64 µg/ml
Description: as §1, §2, §3, §4

B. subtilis (168) = assay: microbe, parasite or virus in culture; type: cell-based
Description: as §1, §2, §3, §4

S. pyogenes (5448) = assay: microbe, parasite or virus in culture; type: cell-based
Description: as §1, §2, §3, §4

E. faecium (VRE7391) = assay: microbe, parasite or virus in culture; type: cell-based, Enterococcus faecium
Description: as §1, §2, §3, §4

E. faecium (E980) = assay: microbe, parasite or virus in culture; type: cell-based, Enterococcus faecium
Description: as §1, §2, §3, §4

E. faecium (VRE2297) = assay: microbe, parasite or virus in culture; type: cell-based, Enterococcus faecium; conditions: Table 2; vancomycin-resistant isolate from hospitalized patients; broth microdilution in TSB, 16 h; highest tested 64 µg/ml
Description: as §1, §2, §3, §4

E. faecium (VRE0321) = assay: microbe, parasite or virus in culture; type: cell-based, Enterococcus faecium
Description: as §1, §2, §3, §4

[3] = Supplemental table S9, MIC values of Table 2 expressed in µM
[4] = Table 2, broth microdilution in TSB, 16 h, read visually, highest tested 64 µg/ml
[5] = Supplemental table S9, vancomycin-resistant isolate, MIC values of Table 2 expressed in µM
[6] = Table 2, vancomycin-resistant isolate from hospitalized patients, broth microdilution in TSB, 16 h, highest tested 64 µg/ml

## CCCCCCCCCCCCCCNC(=O)CNC(=O)[C@H]1CSCc2cc3cc(c2)CSC[C@@H](NC(=O)[C@@H](CC(C)C)NC(=O)[C@@H](CC(C)C)NC(=O)[C@@H](CO)NC(=O)[C@@H](CCC(N)=O)NC(=O)[C@@H](CC(C)C)NC(=O)[C@@H](CC(C)C)NC(=O)[C@H](NC(=O)[C@@H](C)N)CSC3)C(=O)N2CCC[C@@H]2C(=O)N[C@H](Cc2ccc(O)cc2)C(=O)N[C@H](CO)C(=O)N[C@H]([C@H](C)O)C(=O)N[C@H](Cc2c[nH]cn2)C(=O)N[C@H](CCCNC(=N)N)C(=O)N1 [Peptide P8-D-C14] (H-[dA][dC][dL][dL][dQ][dS][dL][dL][dC][dP][dY][dS][dT][dH][dR][dC]G-NHtetradecyl; linker 2-9-16 via TBMB; N-terminus assumed)
Sheep blood
  Hemolysis 32 µg/ml (after 1 h): 12%
M. luteus (NCTC2665)
  MIC M. luteus: 4 to 64 µg/mL
E. faecium (VRE155)
  MIC VRE E155: 4 to 64 µg/mL
[1]
  solubility of the peptide: poor

## CCCCCCCCCCNC(=O)CNC(=O)[C@H]1CSCc2cc3cc(c2)CSC[C@@H](NC(=O)[C@@H](CC(C)C)NC(=O)[C@@H](CC(C)C)NC(=O)[C@@H](CO)NC(=O)[C@@H](CCC(N)=O)NC(=O)[C@@H](CC(C)C)NC(=O)[C@@H](CC(C)C)NC(=O)[C@H](NC(=O)[C@@H](C)N)CSC3)C(=O)N2CCC[C@@H]2C(=O)N[C@H](Cc2ccc(O)cc2)C(=O)N[C@H](CO)C(=O)N[C@H]([C@H](C)O)C(=O)N[C@H](Cc2c[nH]cn2)C(=O)N[C@H](CCCNC(=N)N)C(=O)N1 [Peptide P8-D-C10] (H-[dA][dC][dL][dL][dQ][dS][dL][dL][dC][dP][dY][dS][dT][dH][dR][dC]G-NHDecyl; linker 2-9-16 via TBMB)
Lipid II; Supplemental table S10, peptide at 4x MIC, antagonist at 4 molar equivalents, M. luteus 1 x 10^6 CFU/ml, 16 h at 30°C, growth observed visually
  Result with antagonist Lipid II: +
Lipid II; premixed with an excess of lipid II before addition of a live culture of M. luteus
  Effect of pre-incubation with lipid II on antibacterial activity: antagonization of antibacterial activity
[2]
  Result with antagonist C15-P: -
Sheep blood
  Hemolysis 32 µg/ml (after 1 h): 6%
Sheep blood; Supplemental table S9, 1 hour incubation at 37 °C, lipopeptides at 32 µg/mL
  Hemolysis: 6%
M. luteus (NCTC2665)
  MIC M. luteus: 4 µg/mL (≈ 1.89 µM)
M. luteus (NCTC2665); [3]
  MIC M. luteus (NCTC2665): 3.8 µM (≈ 8.05 µg/mL)
C55-PP
  Result with antagonist C55-PP: +
S. epidermidis (1587)
  MIC S. epidermidis (1587): 64 μg mL^–1
B. subtilis (168); Supplemental table S6, lipidated phage display hits, n.a. = not active, highest tested conc 64 µg/ml
  MIC B. subtilis: 8 to 16 µg/mL
B. subtilis (168); [4]
  MIC B. subtilis (168): 8–16 μg mL^–1
S. pyogenes (5448); [3]
  MIC S. pyogenes (5448): 7.6 µM (≈ 16.1 µg/mL)
S. pyogenes (5448); [4]
  MIC S. pyogenes (5448): 8 μg mL^–1
E. faecium (VRE7391); [5]
  MIC E. faecium (VRE7391): 7.6 µM (≈ 16.1 µg/mL)
E. faecium (VRE7391); [6]
  MIC E. faecium (VRE7391): 8 μg mL^–1
E. faecium (E980); [3]
  MIC E. faecium (E980): 30.3 µM (≈ 64.2 µg/mL)
E. faecium (E980); [4]
  MIC E. faecium (E980): 32 μg mL^–1
E. faecium (VRE2297)
  MIC E. faecium (VRE2297): 8–16 μg mL^–1
E. faecium (VRE0321); [5]
  MIC E. faecium (VRE0321): 3.8 µM (≈ 8.05 µg/mL)
E. faecium (VRE0321); [6]
  MIC E. faecium (VRE0321): 4 μg mL^–1
E. faecium (VRE155)
  MIC VRE E155: 4 µg/mL (≈ 1.89 µM)
E. faecium (VRE155); [5]
  MIC E. faecium (VRE155): 3.8 µM (≈ 8.05 µg/mL)
